Source: US20160129089A1, “COMBINATION THERAPY” (ANTISENSE THERAPEUTICS LTD, priority 2013, published 2016)
e = 2'-O-(2-methoxyethyl) (MOE); d = 2'-deoxy (DNA)

Test system: human growth hormone receptor mRNA
Assay: Inhibition of human growth hormone receptor mRNA levels by antisense oligonucleotides, quantitative real-time PCR, MCF7 cells
Assay type: cell-based
Design: concentration or dose not given beside the values
Conditions: averages from three experiments
Description: “Target site” indicates the first (5′-most) nucleotide number on the particular target sequence to which the oligonucleotide binds. “% Inhib” indicates the inhibitory effect on hGHR mRNA levels by quantitative real-time PCR. Data are averages from three experiments in which MCF7 cells were treated with the antisense oligonucleotides.
All oligonucelotides in Table 1 are chimeric oligonucleotides (“gapmers”), 20 nucleotides in length, composed of a central “gap” region consisting of ten 2′-deoxynucleotides, which is flanked on both sides (5′ and 3′ directions) by five-nucleotide “wings”. The wings are composed of 2′-methoxyethyl (2′-MOE) nucleotides. The internucleoside (backbone) linkages are phosphorothioate (P═S) throughout the oligonucleotide. All uracils are 5-methyluracils (^MeU). Typically, the oligonucleotide is synthesized using 2-methoxyethyl modified thymidines not 5-methyluracils. All pyrimidines are C5 methylated (i.e., U, T, C are C5 methylated).

| Substance | % INHIB (inhibitory effect on hGHR mRNA levels) |
| --- | --- |
| 272315 (antisense CAATGAGTACACTGGAACTG; sugars from the 5' end e5 d10 e5, all phosphorothioate, methylation of C not given here) [compound 272315] | 53% |
| 272319 (antisense ATTTTCCTTCCTTGAGGAGA; sugars from the 5' end e5 d10 e5, all phosphorothioate, methylation of C not given here) [compound 272319] | 67% |
| 272351 (antisense ATAGAAATGTTGTCAGGCTG; sugars from the 5' end e5 d10 e5, all phosphorothioate, methylation of C not given here) [compound 272351] | 57% |
| 227483 (antisense AGGCTTTCTGTGGTGATGTA; sugars from the 5' end e5 d10 e5, all phosphorothioate, methylation of C not given here) [compound 227483] | 75% |
| 272340 (antisense CATCAACCAAGATTTGGTGA; sugars from the 5' end e5 d10 e5, all phosphorothioate, methylation of C not given here) [compound 272340] | 69% |
| 272309 (antisense TAACAGCTGTTTTCCCCAGC; sugars from the 5' end e5 d10 e5, all phosphorothioate, methylation of C not given here) [compound 272309] | 85% |
| 272339 (antisense GTTTTACATATCCAAACTAT; sugars from the 5' end e5 d10 e5, all phosphorothioate, methylation of C not given here) [compound 272339] | 72% |
| 272308 (antisense GCTGTATGGGTCCTAGGTTC; sugars from the 5' end e5 d10 e5, all phosphorothioate, methylation of C not given here) [compound 272308] | 57% |
| 227499 (antisense TATAAAAGGGCTTTGTAAAA; sugars from the 5' end e5 d10 e5, all phosphorothioate, methylation of C not given here) [compound 227499] | 14% |
| 227469 (antisense CTTAGAAGTCTGTCTGTGTC; sugars from the 5' end e5 d10 e5, all phosphorothioate, methylation of C not given here) [compound 227469] | 63% |
| 272321 (antisense AACCCAAGAGTCATCACTGT; sugars from the 5' end e5 d10 e5, all phosphorothioate, methylation of C not given here) [compound 272321] | 64% |
| 272316 (antisense AACTCGCCATAATTTCCAGA; sugars from the 5' end e5 d10 e5, all phosphorothioate, methylation of C not given here) [compound 272316] | 64% |
| 272343 (antisense AATGCTCTCAAGAATGATGT; sugars from the 5' end e5 d10 e5, all phosphorothioate, methylation of C not given here) [compound 272343] | 48% |
| 227482 (antisense TTCTGTGGTGATGTAAATGT; sugars from the 5' end e5 d10 e5, all phosphorothioate, methylation of C not given here) [compound 227482] | 53% |
| 227500 (antisense CATAGCAGCAAAGTAGCAGA; sugars from the 5' end e5 d10 e5, all phosphorothioate, methylation of C not given here) [compound 227500] | 69% |
| 272357 (antisense TAGGGTCCATCTTTCAAGAC; sugars from the 5' end e5 d10 e5, all phosphorothioate, methylation of C not given here) [compound 272357] | 62% |
| 272331 (antisense CAGTCGCATTGAGTATGAGG; sugars from the 5' end e5 d10 e5, all phosphorothioate, methylation of C not given here) [compound 272331] | 67% |
| 272358 (antisense TCTCCAGATAGAATCTAAAC; sugars from the 5' end e5 d10 e5, all phosphorothioate, methylation of C not given here) [compound 272358] | 53% |

| Substance | % INHIB (inhibitory effect on hGHR mRNA levels) |
| --- | --- |
| 272346 (antisense CTCTTGGAGAAAACCATAGC; sugars from the 5' end e5 d10 e5, all phosphorothioate, methylation of C not given here) [compound 272346] | 67% |
| 272359 (antisense TCCAAATATTCTGGTACTTT; sugars from the 5' end e5 d10 e5, all phosphorothioate, methylation of C not given here) [compound 272359] | 72% |
| 272353 (antisense ATAATGGCTTATGTGGCCAC; sugars from the 5' end e5 d10 e5, all phosphorothioate, methylation of C not given here) [compound 272353] | 72% |
| 227480 (antisense ATGTAAATGTCCTCTTGGTT; sugars from the 5' end e5 d10 e5, all phosphorothioate, methylation of C not given here) [compound 227480] | 66% |
| 272334 (antisense AAGAAAGGCTAAGGCATGAT; sugars from the 5' end e5 d10 e5, all phosphorothioate, methylation of C not given here) [compound 272334] | 61% |
| 272356 (antisense ATGGAGGCTGGAGGTTCAAA; sugars from the 5' end e5 d10 e5, all phosphorothioate, methylation of C not given here) [compound 272356] | 63% |
| 272320 (antisense AGATTGTGTTCACCTCCTCT; sugars from the 5' end e5 d10 e5, all phosphorothioate, methylation of C not given here) [compound 272320] | 70% |
| 272302 (antisense GATCCATACCTGTAGGACCT; sugars from the 5' end e5 d10 e5, all phosphorothioate, methylation of C not given here) [compound 272302] | 60% |
| 272354 (antisense AGTTATGTGACCCTGATTGA; sugars from the 5' end e5 d10 e5, all phosphorothioate, methylation of C not given here) [compound 272354] | 65% |
| 272304 (antisense TGCTAAGGATAGCTGCTGTG; sugars from the 5' end e5 d10 e5, all phosphorothioate, methylation of C not given here) [compound 272304] | 48% |
| 272328 (antisense GGCATTGTCCATAAGGAAGT; sugars from the 5' end e5 d10 e5, all phosphorothioate, methylation of C not given here) [compound 272328] | 85% |
| 227501 (antisense GCTATTTTTGGCTATAGAAA; sugars from the 5' end e5 d10 e5, all phosphorothioate, methylation of C not given here) [compound 227501] | 64% |
| 227490 (antisense GCATGATTTTGTTCAGTTGG; sugars from the 5' end e5 d10 e5, all phosphorothioate, methylation of C not given here) [compound 227490] | 67% |
| 272327 (antisense GGACATCCCTGCCTTATTCT; sugars from the 5' end e5 d10 e5, all phosphorothioate, methylation of C not given here) [compound 272327] | 60% |
| 272325 (antisense AAGGCATAAGAGATCTGCTT; sugars from the 5' end e5 d10 e5, all phosphorothioate, methylation of C not given here) [compound 272325] | 66% |
| 272341 (antisense GAGGCTATAGATCTTATCTC; sugars from the 5' end e5 d10 e5, all phosphorothioate, methylation of C not given here) [compound 272341] | 65% |
| 272305 (antisense TTGTCTTTAGGCCTGGATTA; sugars from the 5' end e5 d10 e5, all phosphorothioate, methylation of C not given here) [compound 272305] | 68% |
| 272318 (antisense TCAGCATTTTAATCCTTTGC; sugars from the 5' end e5 d10 e5, all phosphorothioate, methylation of C not given here) [compound 272318] | 55% |
